Laboratory results: article PMC3684613 (PLoS ONE, 2013)
Like-named read-outs stand apart in the source and are kept apart here.

What was measured:
P. falciparum 3D7 [1] = test system: P. falciparum 3D7; parameters: method as in ChEMBL-NTD; conditions: ref ChEMBL-NTD, cited from earlier work
P. falciparum 3D7 [2] = assay: DAPI stain fluorescent high content imaging assay, P. falciparum 3D7 (confirmatory screen, Avery); conditions: Plasmodium falciparum; for inhibition of growth at 5 µM: 3D7, read-out: percent_inh @ 5 uM; for EC50: 3D7, read-out: EC50_nM; for inhibition of growth at 2 µM: 3D7, read-out: percent_inh @ 2 uM
[3] = original screening data, source (GSK, GNF, StJude), several values separated by ';' in order of sources
[4] = values follow the order of the source (GNF; GSK; StJude)

SMILES	EC50 (P. falciparum 3D7 [2]) [nM]	inhibition of growth at 5 µM (P. falciparum 3D7 [2]) [%]	further results
COc1cccc(C(=O)Nc2ccc(-c3nc4ccccc4[nH]3)cc2)c1 [MMV019762]	–	83	EC50 (P. falciparum 3D7 [1]; [3]): 802 nM
Cc1ccc(CSCc2ccc(C(=O)NC3CC3)o2)cc1 [MMV007571]	635	97	EC50 (P. falciparum 3D7 [1]; source GNF): 418 nM
CCOC(=O)c1cnc2c(CC)cccc2c1O [MMV498479]	–	87	EC50 (P. falciparum 3D7 [1]; source GNF (GNF-Pf ids)): 1660 nM
COc1ccc(CN2CCCC(C(=O)c3ccc(C(F)(F)F)cc3)C2)c(O)c1 (stereo not shown) [MMV666060]	–	97	EC50 (P. falciparum 3D7 [1]; source GSK (TCMDC ids)): 849 nM
CSc1ccccc1C(=O)Nc1nc(-c2ccccn2)cs1 [MMV001246]	206	98	EC50 (P. falciparum 3D7 [1]; source StJude (SJ id)): 6820 nM
CCOc1cc(Br)c(C(C)NC(=O)c2cccc(OC)c2)cc1OCC (stereo not shown) [MMV665796]	1430	96	EC50 (P. falciparum 3D7 [1]; source GSK): 168 nM
COc1ccc(C(C)=O)cc1N1C(=O)C2C(C1=O)C1(c3ccccc3)C(=O)C2(c2ccccc2)C(c2ccc(C)cc2)=C1c1ccc(C)cc1 (stereo not shown) [MMV007695]	179	96	EC50 (P. falciparum 3D7 [1]; source GNF (GNF-Pf id)): 2460 nM
CCCn1c(=N)c(C(=O)NC2CCCCC2)cc2c(=O)n3cccc(C)c3nc21 [MMV008829]	1110	96	EC50 (P. falciparum 3D7 [1]; source GNF): 460 nM
COc1ccc(-c2cc(=O)oc3c4c(ccc23)OCN(Cc2ccc(F)cc2)C4)cc1 [MMV000604]	735	96	EC50 (P. falciparum 3D7 [1]; source StJude (SJ ids)): 5210 nM
O=C1c2ccccc2C2=Nc3ccccc3SC(c3cccc(F)c3)C12 (stereo not shown) [MMV006389]	414	94	EC50 (P. falciparum 3D7 [1]; source GNF (GNF-Pf ids)): 86.7 nM
COc1ccc2sc(N(Cc3cccnc3)C(=O)c3ccc(C#N)cc3)nc2c1 [MMV001239]	–	–	EC50 (P. falciparum 3D7 [1]; [4]): 15000 nM; inhibition of growth at 2 µM (P. falciparum 3D7 [2]): 89%
COc1ccc(C2Sc3ccccc3N=C3C2=C(O)c2ccccc23)cc1 (stereo not shown) [MMV000563]	845	96	EC50 (P. falciparum 3D7 [1]; source GNF): 238 nM
Cc1ccc(C)c(Cn2c(N3CCC(C(=O)NCc4cccs4)CC3)nc3ccccc32)c1 [MMV019741]	1330	97	EC50 (P. falciparum 3D7 [1]; source GSK (TCMDC ids)): 938 nM
CCOc1ccc2c(c1)CN(Cc1ccc(Cl)cc1)CO2 [MMV000443]	439	97	EC50 (P. falciparum 3D7 [1]; source StJude (SJ ids)): 1490 nM
COc1ccc2c(=O)cc(C(Cl)(Cl)Cl)oc2c1 [MMV665820]	520	94	EC50 (P. falciparum 3D7 [1]; source StJude (SJ id)): 15000 nM
OC(Cn1nnc2ccccc21)Cn1c2ccc(Br)cc2c2cc(Br)ccc21 (stereo not shown) [MMV666025]	1260	98	EC50 (P. falciparum 3D7 [1]; source GNF (GNF-Pf ids)): 3370 nM
COc1cccc(C(=O)NC(c2ccc(C)cc2)c2cc(Cl)c3cccnc3c2O)c1 (stereo not shown) [MMV665969]	393	97	EC50 (P. falciparum 3D7 [1]; source StJude (SJ ids)): 15000 nM

Further compounds by falling EC50 (P. falciparum 3D7 [2]), results first:

EC50 (P. falciparum 3D7 [2]) [nM]	SMILES	inhibition of growth at 5 µM (P. falciparum 3D7 [2]) [%]	further results
4000	CCCCc1c(C)nc2c(OC)cccc2c1O [MMV006820]	–	EC50 (P. falciparum 3D7 [1]; [3]): 1690 nM; inhibition of growth at 2 µM (P. falciparum 3D7 [2]): 92%
4000	CCc1ccc(Nc2cc(C)nc3nc(C)nn23)cc1 [MMV007374]	–	EC50 (P. falciparum 3D7 [1]; [3]): 574 nM; inhibition of growth at 2 µM (P. falciparum 3D7 [2]): 81%
1720	O=C(NCC1Cc2cccc(-c3ccncc3)c2O1)c1csc2c1CCCC2 (stereo not shown) [MMV665954]	87	EC50 (P. falciparum 3D7 [1]; source StJude): 8740 nM
1380	CCCCC(O)(c1ccc(Cl)cc1)C(CN1CCOCC1)c1ccc(Cl)cc1 (stereo not shown) [MMV000619]	98	EC50 (P. falciparum 3D7 [1]; source StJude (SJ ids)): 4010 nM
1370	CCOc1cc(Cl)c(C(C)NC(=O)c2ccccc2)cc1OCC (stereo not shown) [MMV665800]	96	EC50 (P. falciparum 3D7 [1]; source GSK): 875 nM
1260	CC(C)c1ccc(CNCC(O)c2ccccc2)cc1 (stereo not shown) [MMV001049]	96	EC50 (P. falciparum 3D7 [1]; [3]): 1350 nM
1180	COc1ccc(C2C(C(=O)Nc3cccc(OC)c3)c3ccccc3C(=O)N2C2CCCCC2)cc1 (stereo not shown) [MMV008455]	97	EC50 (P. falciparum 3D7 [1]; source GNF (GNF-Pf ids)): 1110 nM
1160	CC(C)=CCN1CCC(C(=O)Nc2ccc(-c3nc4ccccc4[nH]3)cc2)CC1 [MMV665946]	96	EC50 (P. falciparum 3D7 [1]; source GSK): 908 nM; EC50 (P. falciparum 3D7 [1]; source StJude): 1340 nM
1000	CC1CC2=C(CC1CNCCCN(C)C)C(C)(C)CCC2 (stereo not shown) [MMV665830]	98	EC50 (P. falciparum 3D7 [1]; [4]): 250 nM
454	Cc1ccc(C2CC(C(F)(F)F)n3nc(C(=O)N4CCN(C(c5ccccc5)c5ccccc5)CC4)cc3N2)cc1 (stereo not shown) [MMV000699]	98	EC50 (P. falciparum 3D7 [1]; source StJude (SJ ids)): 668 nM
205	CCOC(=O)c1c(NC(=O)c2ccccc2)sc2c(O)c(CN(CC)CC)ccc12 [MMV665831]	96	EC50 (P. falciparum 3D7 [1]; source GNF (GNF-Pf id)): 267 nM; EC50 (P. falciparum 3D7 [1]; source GSK (TCMDC id)): 969 nM
180	COc1ccc(Br)cc1C1Nc2ccc3ccccc3c2C2=C1C(=O)CC(c1ccccc1)C2 (stereo not shown) [MMV020885]	95	EC50 (P. falciparum 3D7 [1]; source GSK (TCMDC id)): 590 nM
